In one assay the target is T1, Recombinant human HDAC6 (Homo sapiens, UniProt Q9UBN7).
T1 construct: full-length, MW=180 kDa; GST tag (N); made in house; host or cells: Sf9 insect cells (baculovirus)
T1 sequence (Q9UBN7 1-1215): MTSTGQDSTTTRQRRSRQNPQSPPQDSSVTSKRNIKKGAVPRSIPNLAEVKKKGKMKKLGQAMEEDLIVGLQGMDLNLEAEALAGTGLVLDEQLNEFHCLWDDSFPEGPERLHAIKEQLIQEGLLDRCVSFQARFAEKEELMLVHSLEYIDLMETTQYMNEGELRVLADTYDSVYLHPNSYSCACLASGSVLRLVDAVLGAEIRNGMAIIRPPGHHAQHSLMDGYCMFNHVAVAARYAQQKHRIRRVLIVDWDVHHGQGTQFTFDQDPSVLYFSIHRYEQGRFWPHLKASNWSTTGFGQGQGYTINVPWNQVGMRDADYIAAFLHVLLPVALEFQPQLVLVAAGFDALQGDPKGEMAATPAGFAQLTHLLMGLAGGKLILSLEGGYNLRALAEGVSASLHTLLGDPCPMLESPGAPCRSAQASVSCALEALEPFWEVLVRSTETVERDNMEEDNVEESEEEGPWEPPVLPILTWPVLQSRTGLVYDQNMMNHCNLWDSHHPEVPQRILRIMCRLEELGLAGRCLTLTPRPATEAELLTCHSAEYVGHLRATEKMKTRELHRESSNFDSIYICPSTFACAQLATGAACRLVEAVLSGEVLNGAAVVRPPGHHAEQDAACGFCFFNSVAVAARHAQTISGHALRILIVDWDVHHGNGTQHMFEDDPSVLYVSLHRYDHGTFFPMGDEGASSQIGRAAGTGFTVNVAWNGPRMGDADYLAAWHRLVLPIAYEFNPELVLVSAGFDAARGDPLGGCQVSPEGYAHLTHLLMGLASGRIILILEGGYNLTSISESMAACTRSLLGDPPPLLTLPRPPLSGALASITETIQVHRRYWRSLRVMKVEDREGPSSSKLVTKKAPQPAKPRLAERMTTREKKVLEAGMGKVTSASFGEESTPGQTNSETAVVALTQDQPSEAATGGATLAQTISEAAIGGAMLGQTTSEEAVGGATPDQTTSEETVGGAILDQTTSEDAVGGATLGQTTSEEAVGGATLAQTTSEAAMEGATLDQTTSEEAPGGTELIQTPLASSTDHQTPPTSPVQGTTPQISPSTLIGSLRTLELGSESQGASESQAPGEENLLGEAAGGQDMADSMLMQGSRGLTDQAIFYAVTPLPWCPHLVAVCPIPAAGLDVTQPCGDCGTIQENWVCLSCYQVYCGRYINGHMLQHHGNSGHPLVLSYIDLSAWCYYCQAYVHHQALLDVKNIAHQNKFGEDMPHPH
The assay is described as follows: Biochemical HDAC assay, HDAC6. Particulars: incubation time 10 min. The procedure:
Recombinant human HDAC6 (GenBank Accession No. BC069243), full-length, MW=180 kDa, was expressed by baculovirus in Sf9 insect cells using an N-terminal GST tag.
(§1) • I. Compound handling: Testing compounds were dissolved in 100% DMSO to a specific concentration. The serial dilution was conducted by epMotion 5070 in DMSO. • II. HDAC reaction buffer: 50 mM Tris-HCl, pH8.0, 137 mM NaCl, 2.7 mM KCl, and 1 mM MgCl2, Added fresh: 1 mg/ml BSA, 1% DMSO. • III. Substrate: Fluorogenic HDAC General Substrate for HDAC1, 2, 3, 6, 10, 11 ans Sirt1, 2 and 3: Arg-His-Lys-Lys(Ac); HDAC8 only substrate: Arg-His-Lys(Ac)-Lys(Ac); Class2A Substrate (HDAC4, 5, 7 and 9): Acetyl-Lys(trifluoroacetyl)-AMC; Sirt5 substrate: Ac-Lys(succinyl)-AMC. • IV. General Reaction Procedure: (Standard IC50 determination) • a. Delivered 2× enzyme in wells of reaction plate except No Enzyme (No En) control wells. Add buffer in No En wells. • b. Delivered compounds in 100% DMSO into the enzyme mixture by Acoustic technology (Echo550; nanoliter range). Spin down and pre-incubation. • c. Delivered 2× Substrate Mixture (Fluorogenic HDAC Substrate and co-factor (500 μM of Nicotinamide adenine dinucleotide (NAD^+) in all Sirt assay) in all reaction wells to initiate the reaction. Spin and shake. • d. Incubated for 1-2 hr. at 30° C. with seal. • e. Added Developer with Trichostatin A (or TMP269 or NAD^+) to stop the reaction and to generate fluorescent color. • f. Fluorescence was read (excitatory, 360; emission, 460) using the EnVision Multilabel Plate Reader (Perkin Elmer) • g. Endpoint reading was taken for analysis after the development reaches plateau. • V. Data Analysis: The percentages of enzyme activity (relative to DMSO controls) and IC50 values were calculated using the GraphPad Prism 4 program based on a sigmoidal dose-response equation.
(§2) Compounds with indicated doses was tested in the biochemical assays of HDAC1, HDAC2, HDAC3, HDAC4, HDAC5, HDAC6, HDAC7, HDAC8, HDAC9, HDAC10, or HDAC11 enzyme. The incubation time in HDAC1/2 assays are 120 min, and that for other HDACs are 10 min. The curve fit and IC50 values were calculated using the GraphPad Prism 4 program based on a sigmoidal dose-response equation.

The next assay deals with T2, Human HDAC8 (Homo sapiens, UniProt Q9BY41).
T2 construct: full-length with a C-terminal His tag; His tag (C); made in house
T2 sequence (Q9BY41 1-377): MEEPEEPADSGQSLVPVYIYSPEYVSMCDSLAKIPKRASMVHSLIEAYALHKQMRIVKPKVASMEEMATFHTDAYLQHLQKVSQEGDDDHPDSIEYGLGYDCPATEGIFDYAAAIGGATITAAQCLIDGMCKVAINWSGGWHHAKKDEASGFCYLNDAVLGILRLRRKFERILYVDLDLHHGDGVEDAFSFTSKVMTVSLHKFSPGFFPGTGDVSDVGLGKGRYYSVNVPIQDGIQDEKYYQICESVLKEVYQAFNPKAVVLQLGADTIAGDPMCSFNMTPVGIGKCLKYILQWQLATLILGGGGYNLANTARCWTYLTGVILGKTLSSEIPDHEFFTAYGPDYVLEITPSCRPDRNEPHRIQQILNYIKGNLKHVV
Nature of the assay: Biochemical HDAC assay, HDAC8. The settings on record: incubation time 10 min. The procedure:
Human HDAC8 (GenBank Accession No. NM_018486), full-length with a C-terminal His tag, MW=46.4 kDa, was expressed in a baculovirus expression system.
as §1, §2

Structures are written as SMILES. Bounds are passed on as bounds.

Here are results for one compound from patent US20190270733A1, “Quinoline and Isoquinoline Based HDAC Inhibitors and Methods of Use Thereof” (Reaction Biology Corp., priority 2018, published 2019).

For orientation: IC50 means the concentration that gives 50% inhibition.

Take `Nc1ccc(-c2cccs2)cc1NC(=O)c1ccc2c(c1)CCC(=O)N2` [Example 5, N-(2-amino-5-(thiophen-2-yl)phenyl)-2-oxo-1,2,3,4-tetrahydroquinoline-6-carboxamide]: the IC50 at Recombinant human HDAC6 and on Human HDAC8 was greater than 10 µM in each case.
